What all share (type): biochemical
The target of experiment [1] is PI3Ka (Homo sapiens (Human), UniProt P42336). Nature of the experiment: Z'-LYTE / Adapta kinase assay, PI3Ka. The conditions noted are these: read-out: PI3Ka % Inh. @ 100 nM. An excerpt:
(§1) The Z′-LYTE® biochemical assay employs a fluorescence-based, coupled-enzyme format and is based on the differential sensitivity of phosphorylated and non-phosphorylated peptides to proteolytic cleavage (FIG. 6). The peptide substrate is labeled with two fluorophores one at each end—that make up a FRET pair. In the primary reaction, the kinase transfers the gamma-phosphate of ATP to a single tyrosine, serine or threonine residue in a synthetic FRET-peptide. In the secondary reaction, a site-specific protease recognizes and cleaves non-phosphorylated FRET-peptides. Phosphorylation of FRET-peptides suppresses cleavage by the Development Reagent. Cleavage disrupts FRET between the donor (i.e., coumarin) and acceptor (i.e., fluorescein) fluorophores on the FRET-peptide, whereas uncleaved, phosphorylated FRET-peptides maintain FRET. A ratiometric method, which calculates the ratio (the Emission Ratio) of donor emission to acceptor emission after excitation of the donor fluorophore at 400 nm, is used to quantitate reaction progress.
(§2) A significant benefit of this ratiometric method for quantitating reaction progress is the elimination of well-to-well variations in FRET-peptide concentration and signal intensities. As a result, the assay yields very high Z′-factor values (>0.7) at a low percent phosphorylation.
(§3) Both cleaved and uncleaved FRET-peptides contribute to the fluorescence signals and therefore to the Emission Ratio. The extent of phosphorylation of the FRET-peptide can be calculated from the Emission Ratio.
(§4) Enzyme: The ADAPTA universal kinase assay is a homogenous, fluorescent based immunoassay for the detection of ADP. In contrast to ATP depletion assays, the ADAPTA assay is extremely sensitive to ADP formation such that a majority of the signal change occurs in the first 10-20% conversion of ATP to ADP. This makes the ADAPTA universal kinase assay ideally suited for use with low activity kinases.
(§5) The principle of the ADAPTA universal kinase assay is outlined below. The assay itself can be divided into two phases: a kinase reaction phase, and an ADP detection phase. In the kinase reaction phase, all components required for the kinase reaction are added to the well, and the reaction is allowed to incubate for 60 minutes.
(§6) Z′-LYTE® Assay Conditions:
(§7) Test Compounds: The Test Compounds are screened in 1% DMSO (final) in the well. For 10 point titrations, 3-fold serial dilutions are conducted from the starting concentration.
(§8) Peptide/Kinase Mixtures: All Peptide/Kinase Mixtures are diluted to a 2× working concentration in the appropriate Kinase Buffer.
(§9) ATP Solution: All ATP Solutions are diluted to a 4× working concentration in Kinase Buffer (50 mM HEPES pH 7.5, 0.01% BRIJ-35, 10 mM MgCl2, 1 mM EGTA). ATP Km apparent is previously determined using a Z′-LYTE® assay.
(§10) Development Reagent Solution: The Development Reagent is diluted in Development Buffer. […]
(§11) 2.5 μL—4× Test Compound or 100 nL 100× plus 2.4 μL kinase buffer. 2. 5 μL—2× Peptide/Kinase Mixture. 3. 2.5 μL—4× ATP Solution. 4. 30-second plate shake. 5. 60-minute Kinase Reaction incubation at room temperature. 6. 5 μL—Development Reagent Solution. 7. 30-second plate shake. 8. 60-minute Development Reaction incubation at room temperature. 9.

Experiment [2] addresses DNA-PK (Homo sapiens (Human), UniProt P78527). In words: Z'-LYTE / Adapta kinase assay, DNA-PK. The following applies: read-out: DNA-PK % Inh. @ 100 nM.
Description: as §1, §2, §3, §4, §5, §6, §7, §8, §9, §10, §11

The target in experiment [3] is EGFR (Homo sapiens (Human), UniProt P00533). In words: Z'-LYTE / Adapta kinase assay, EGFR. The following applies: read-out: EGFR % Inh. @ 100 nM.
Chain of EGFR (P00533 25-1210): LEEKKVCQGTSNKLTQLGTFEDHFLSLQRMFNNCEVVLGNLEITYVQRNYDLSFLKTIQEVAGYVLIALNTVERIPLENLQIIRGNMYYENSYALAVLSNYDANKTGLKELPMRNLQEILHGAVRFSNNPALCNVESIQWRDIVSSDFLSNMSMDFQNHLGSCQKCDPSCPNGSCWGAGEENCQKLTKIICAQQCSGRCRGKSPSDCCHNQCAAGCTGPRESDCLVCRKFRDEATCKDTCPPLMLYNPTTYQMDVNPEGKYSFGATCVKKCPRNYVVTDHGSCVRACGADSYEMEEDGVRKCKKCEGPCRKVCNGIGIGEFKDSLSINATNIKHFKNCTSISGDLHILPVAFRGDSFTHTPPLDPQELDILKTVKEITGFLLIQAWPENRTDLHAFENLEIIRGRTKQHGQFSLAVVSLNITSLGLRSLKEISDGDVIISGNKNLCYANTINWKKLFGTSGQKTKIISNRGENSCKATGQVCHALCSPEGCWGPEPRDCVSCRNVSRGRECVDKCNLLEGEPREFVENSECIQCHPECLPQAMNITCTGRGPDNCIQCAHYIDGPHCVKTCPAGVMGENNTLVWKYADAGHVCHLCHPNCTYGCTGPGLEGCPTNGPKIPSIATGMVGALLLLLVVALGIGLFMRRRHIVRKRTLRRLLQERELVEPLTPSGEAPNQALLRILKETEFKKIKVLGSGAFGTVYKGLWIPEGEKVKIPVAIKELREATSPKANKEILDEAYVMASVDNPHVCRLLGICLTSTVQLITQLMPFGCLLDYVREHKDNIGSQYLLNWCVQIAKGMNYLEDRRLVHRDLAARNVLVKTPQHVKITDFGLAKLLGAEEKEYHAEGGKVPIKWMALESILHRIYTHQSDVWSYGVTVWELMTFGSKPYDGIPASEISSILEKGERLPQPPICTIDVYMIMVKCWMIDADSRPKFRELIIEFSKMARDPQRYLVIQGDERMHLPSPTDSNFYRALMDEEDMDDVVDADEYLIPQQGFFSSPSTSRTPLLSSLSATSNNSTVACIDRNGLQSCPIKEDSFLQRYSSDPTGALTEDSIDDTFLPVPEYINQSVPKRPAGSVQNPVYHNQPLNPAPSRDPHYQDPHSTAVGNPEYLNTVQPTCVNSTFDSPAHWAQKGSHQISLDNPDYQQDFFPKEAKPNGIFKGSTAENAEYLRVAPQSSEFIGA
Description: as §1, §2, §3, §4, §5, §6, §7, §8, §9, §10, §11

The structures appear in SMILES notation.

Chain of PI3Ka (P42336 whole entry): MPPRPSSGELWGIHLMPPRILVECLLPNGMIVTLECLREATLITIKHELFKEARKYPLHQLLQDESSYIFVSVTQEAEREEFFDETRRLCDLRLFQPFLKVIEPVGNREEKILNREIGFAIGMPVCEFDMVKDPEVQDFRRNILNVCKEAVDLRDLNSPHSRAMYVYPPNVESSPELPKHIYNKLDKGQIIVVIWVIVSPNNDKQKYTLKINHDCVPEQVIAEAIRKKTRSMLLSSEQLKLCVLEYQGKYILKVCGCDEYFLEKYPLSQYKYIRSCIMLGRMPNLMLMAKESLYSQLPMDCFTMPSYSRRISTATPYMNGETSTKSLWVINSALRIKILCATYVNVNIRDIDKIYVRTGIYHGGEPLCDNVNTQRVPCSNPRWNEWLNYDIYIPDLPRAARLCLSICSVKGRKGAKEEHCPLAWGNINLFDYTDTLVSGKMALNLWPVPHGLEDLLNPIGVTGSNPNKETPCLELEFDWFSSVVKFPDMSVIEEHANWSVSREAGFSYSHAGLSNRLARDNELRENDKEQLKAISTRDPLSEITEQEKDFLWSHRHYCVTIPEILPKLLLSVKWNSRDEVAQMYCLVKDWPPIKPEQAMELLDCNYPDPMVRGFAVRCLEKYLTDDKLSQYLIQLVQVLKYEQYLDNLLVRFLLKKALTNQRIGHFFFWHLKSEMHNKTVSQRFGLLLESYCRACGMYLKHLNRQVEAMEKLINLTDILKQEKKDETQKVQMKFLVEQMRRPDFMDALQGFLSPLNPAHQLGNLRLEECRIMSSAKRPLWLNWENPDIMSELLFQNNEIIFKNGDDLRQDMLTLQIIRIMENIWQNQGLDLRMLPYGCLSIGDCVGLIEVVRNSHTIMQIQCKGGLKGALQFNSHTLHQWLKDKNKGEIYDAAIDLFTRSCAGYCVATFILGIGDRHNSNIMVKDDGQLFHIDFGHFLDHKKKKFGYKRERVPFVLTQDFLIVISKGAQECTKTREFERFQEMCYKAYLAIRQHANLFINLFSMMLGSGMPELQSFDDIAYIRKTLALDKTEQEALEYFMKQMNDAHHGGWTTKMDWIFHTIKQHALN
Chain of PI3Ka (P27986 whole entry partner): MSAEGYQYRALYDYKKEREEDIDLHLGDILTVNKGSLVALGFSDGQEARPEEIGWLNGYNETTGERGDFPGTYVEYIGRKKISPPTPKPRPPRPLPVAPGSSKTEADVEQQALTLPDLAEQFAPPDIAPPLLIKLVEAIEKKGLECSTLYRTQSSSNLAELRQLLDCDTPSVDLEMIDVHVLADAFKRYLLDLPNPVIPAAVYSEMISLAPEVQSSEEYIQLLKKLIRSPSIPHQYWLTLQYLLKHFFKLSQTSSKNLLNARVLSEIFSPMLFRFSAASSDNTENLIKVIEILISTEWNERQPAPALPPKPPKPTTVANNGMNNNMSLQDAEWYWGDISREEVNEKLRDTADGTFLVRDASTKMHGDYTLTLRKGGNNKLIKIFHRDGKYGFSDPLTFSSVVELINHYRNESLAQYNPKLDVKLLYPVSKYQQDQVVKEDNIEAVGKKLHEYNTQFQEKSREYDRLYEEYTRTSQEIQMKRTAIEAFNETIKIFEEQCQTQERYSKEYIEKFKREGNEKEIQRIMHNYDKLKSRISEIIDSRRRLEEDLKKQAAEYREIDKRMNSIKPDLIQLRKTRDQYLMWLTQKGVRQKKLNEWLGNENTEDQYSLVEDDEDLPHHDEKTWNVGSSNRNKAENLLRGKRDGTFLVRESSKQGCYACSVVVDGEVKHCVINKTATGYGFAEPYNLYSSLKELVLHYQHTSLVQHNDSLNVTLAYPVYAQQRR

`CC(Nc1c(C#N)cnc2ccc(-c3cnc4[nH]ccc4c3)cc12)c1ccccc1` (stereo not drawn) [Compound 55, 4-(1-phenylethylamino)-6-(1H-pyrrolo [2,3-b]pyridin-5-yl) quinoline-3-carbonitrile]: the values for the inhibition at 0.1 µM in experiment [1], in experiment [2] and in experiment [3] were below 10%, 10 to 80% and 10 to 80%, respectively.
Regarding `Cc1nc2cc(-c3ccc4ncc(C#N)c(NC(C)c5ccccc5)c4c3)cnc2[nH]1` (stereo not drawn) [Compound 56, 6-(2-methyl-3H-imidazo[4,5-b]pyridin-6-yl)-4-(1-phenylethylamino) quinoline-3-carbonitrile], the inhibition at 0.1 µM in experiment [1], in experiment [2] and in experiment [3] was 10 to 80% in each case.
In the case of `CC(Nc1c(C#N)cnc2ccc(-c3cncc(O)c3)cc12)c1ccccc1` (stereo not drawn) [Compound 61, 6-(5-hydroxy-3-pyridyl)-4-(1-phenylethylamino) quinoline-3-carbonitrile], the inhibition at 0.1 µM in experiment [1] is below 10%; in experiment [2] it was 10 to 80%; in experiment [3] it was 80 to 90%.
For `CC(Nc1c(C#N)cnc2ccc(-c3cnc(N)c(C(F)(F)F)c3)cc12)c1ccccc1` (stereo not drawn) [Compound 62, 6-(6-amino-5-(trifluoromethyl)pyridin-3-yl)-4-((1-phenylethyl)amino)quinoline-3-carbonitrile] the same measures were below 10%, 10 to 80% and 10 to 80%.
The like results for `CC(Nc1c(C#N)cnc2ccc(-c3cncc(C#N)c3)cc12)c1ccccc1` (stereo not drawn) [Compound 64, 6-(5-cyano-3-pyridyl)-4-(1-phenylethylamino) quinoline-3-carbonitrile] were, in that order, 10 to 80%, 10 to 80% and 10 to 80%.
For `CC(Nc1c(C#N)cnc2ccc(-c3cnc(N)c(C#N)c3)cc12)c1ccccc1` (stereo not drawn) [Compound 65, 6-(6-amino-5-cyano-3-pyridyl)-4-(1-phenylethylamino) quinoline-3-carbonitrile] the same measures were 10 to 80%, 10 to 80% and 80 to 90%.
`CC(Nc1c(C#N)cnc2ccc(-c3cncc(C(C)(C)O)c3)cc12)c1ccccc1` (stereo not drawn) [Compound 67, 6-[5-(1-hydroxy-1-methyl-ethyl)-3-pyridyl]-4-(1-phenylethylamino) quinoline-3-carbonitrile]: the inhibition at 0.1 µM in experiment [1], in experiment [2] and in experiment [3] was 10 to 80% throughout.
Regarding `COc1cc(-c2ccc3ncc(C#N)c(NC(C)c4ccccc4)c3c2)cnc1OC` (stereo not drawn) [Compound 68, 6-(5,6-dimethoxy-3-pyridyl)-4-(1-phenylethylamino)quinoline-3-carbonitrile], the inhibition at 0.1 µM in experiment [1] lay in the range of 10 to 80%; in experiment [2], 10 to 80%; in experiment [3], 80 to 90%.
For `CC(Nc1c(C#N)cnc2ccc(-c3cnc4[nH]nnc4c3)cc12)c1ccccc1` (stereo not drawn) [Compound 70, 4-(1-phenylethylamino)-6-(3H-triazolo [4,5-b]pyridin-6-yl) quinoline-3-carbonitrile], the inhibition at 0.1 µM in experiment [1] was in the range of 10 to 80%; in experiment [2] it was 10 to 80%; in experiment [3], 80 to 90%.
In the case of `CC(Nc1c(C#N)cnc2ccc(-c3cnc4cnn(C)c4c3)cc12)c1ccccc1` (stereo not drawn) [Compound 73, 6-(1-methylpyrazolo [4,3-b]pyridin-6-yl)-4-(1-phenylethylamino) quinoline-3-carbonitrile], the results for the inhibition at 0.1 µM in experiment [1], in experiment [2] and in experiment [3] were 10 to 80%, below 10% and 10 to 80%, respectively.
Take `CC(Nc1c(C#N)cnc2ccc(-c3ccc4oc(N)nc4c3)cc12)c1ccccc1` (stereo not drawn) [Compound 87, 6-(2-amino-1,3-benzoxazol-5-yl)-4-(1-phenylethylamino) quinoline-3-carbonitrile]: the inhibition at 0.1 µM in experiment [1] was 10 to 80%; in experiment [2], below 10%; in experiment [3], 80 to 90%.

Source of the values: patent publication US11673876B2, “Substituted aminobenzyl heteroaryl compounds as EGFR and/or PI3K inhibitors” (Mekanistic Therapeutics LLC, priority 2020, dated 2023).
